This is an account of results in PMC8067314, “Uptake of Vitamins D2, D3, D4, D5, D6, and D7 Solubilized in Mixed Micelles by Human Intestinal Cells, Caco-2, an Enhancing Effect of Lysophosphatidylcholine on the Cellular Uptake, and Estimation of Vitamins D’ Biological Activities” (Nutrients, 2021).

The subject of data set [1] is differentiated Caco-2 cells. As to the kind of experiment: Uptake of vitamin D solubilized in mixed micelles by differentiated Caco-2 cells. It is filed as in vitro ADME, human. The note with it: 2 h; for Vitamin D uptake by differentiated Caco-2 cells: vitamin D 1 μM, compared among vitamins D2–D7. The method, then: Caco-2 cells were purchased from the American Type Culture Collection (Rockville, MD, USA). DMEM containing 10% FBS, 4 mM L-glutamine, penicillin and streptomycin (40 units/mL and 40 μg/mL, respectively), and nonessential amino acids (0.1 mM) were used as the culture medium. The cells were grown in the culture medium at 37 °C in a humidified atmosphere of 5% CO2 in air and then were cultured by passaging two times per week. We used differentiated Caco-2 cells, which have been widely used as a human intestinal model, for vitamin D uptake experiments. To induce differentiation of Caco-2 cells, the cells were seeded in culture plate of 24-well at a density of 5 × 10^4 cells per well containing 0.5 mL of the culture medium. Then, the medium was changed with fresh medium two times per week for 20–22 d. We have previously reported that the cell monolayers obtained by this method had sufficient cell-cell adhesion.
The mixed micelles were prepared as described in our previous reports. All of the components, i.e., taurocholate, monoolein, oleic acid, lysophosphatidylcholine, and vitamin D, were dissolved in an appropriate solvent. Portions of these solvent solutions were moved to glass tubes. The solvent was dried up with argon gas and further centrifugal evaporator. The dry matter was dispersed into FBS-free DMEM (same as the culture medium described above but without FBS). To remove any vitamin D not solubilized in the micelles, the resulting solution was passed through a filter (the pore size was 0.2-μm). The materials of mixed micelle and their concentrations were taurocholate (2 mM), monoolein (100 μM), oleic acid (33 μM), lysophosphatidylcholine (0 or 50 μM), and vitamin D (1 μM), respectively, unless otherwise stated. The concentrations were same as those used in our previous study. […] One part of the mixed micelles was diluted with four parts of methylene chloride/methyl alcohol (1:4, v/v), and then a portion (30 μL) was analyzed by high-pressure liquid chromatography (HPLC) as explained in the “2.8. […]

Data set [2] deals with differentiated Caco-2 cells. As to the kind of experiment: Cellular cholesterol in differentiated Caco-2 cells treated with mixed micelles containing lysophosphatidylcholine. Format: cell-based, human. The note with it: 2 h, no vitamin D. The procedure:
The saponification reaction was performed as follows. A portion (0.8 mL) of the cell homogenate was mixed with 200 μL of 40 μM β-sitosterol/ethyl alcohol as an internal standard, 85 μL of 10 M KOH, and 0.6 mL ethyl alcohol and then incubated at 60 °C for 2 h under argon gas. After cooling the reaction solution, cholesterol was extracted with ethyl acetate and n-hexane in the same manner as the extraction of vitamin D described above. The extract was additionally washed with 0.8 mL H2O before the solvent completely dried and then dissolved in 200 μL of methylene chloride/methyl alcohol/H2O (9:81:10, v/v/v). An aliquot (40 μL) was then subjected to HPLC as described in the “2.8. HPLC Analysis” subsection below. The cellular protein content was also determined as above.
Vitamin D and cholesterol were analyzed by using the HPLC system and columns which were the same as in our previous report. Mobile phase X was ethanenitrile/methyl alcohol/H2O (75:15:10, v/v/v), mobile phase Y was methyl alcohol/ethyl acetate (70:30, v/v), and mobile phase Z was methyl alcohol/isopropyl alcohol (70:30, v/v). These mobile phases contained 0.1% ammonium acetate. […] Vitamin D and cholesterol were quantified from the peak area at 265 nm and 210 nm, respectively, by using the respective calibration curve of the authentic standard.

Data set [3] deals with T1, Niemann-Pick C1-like 1 (NPC1L1) (Homo sapiens, UniProt Q9UHC9).
T1 construct: host or cells: differentiated Caco-2 cells
T1 sequence (Q9UHC9 22-1359): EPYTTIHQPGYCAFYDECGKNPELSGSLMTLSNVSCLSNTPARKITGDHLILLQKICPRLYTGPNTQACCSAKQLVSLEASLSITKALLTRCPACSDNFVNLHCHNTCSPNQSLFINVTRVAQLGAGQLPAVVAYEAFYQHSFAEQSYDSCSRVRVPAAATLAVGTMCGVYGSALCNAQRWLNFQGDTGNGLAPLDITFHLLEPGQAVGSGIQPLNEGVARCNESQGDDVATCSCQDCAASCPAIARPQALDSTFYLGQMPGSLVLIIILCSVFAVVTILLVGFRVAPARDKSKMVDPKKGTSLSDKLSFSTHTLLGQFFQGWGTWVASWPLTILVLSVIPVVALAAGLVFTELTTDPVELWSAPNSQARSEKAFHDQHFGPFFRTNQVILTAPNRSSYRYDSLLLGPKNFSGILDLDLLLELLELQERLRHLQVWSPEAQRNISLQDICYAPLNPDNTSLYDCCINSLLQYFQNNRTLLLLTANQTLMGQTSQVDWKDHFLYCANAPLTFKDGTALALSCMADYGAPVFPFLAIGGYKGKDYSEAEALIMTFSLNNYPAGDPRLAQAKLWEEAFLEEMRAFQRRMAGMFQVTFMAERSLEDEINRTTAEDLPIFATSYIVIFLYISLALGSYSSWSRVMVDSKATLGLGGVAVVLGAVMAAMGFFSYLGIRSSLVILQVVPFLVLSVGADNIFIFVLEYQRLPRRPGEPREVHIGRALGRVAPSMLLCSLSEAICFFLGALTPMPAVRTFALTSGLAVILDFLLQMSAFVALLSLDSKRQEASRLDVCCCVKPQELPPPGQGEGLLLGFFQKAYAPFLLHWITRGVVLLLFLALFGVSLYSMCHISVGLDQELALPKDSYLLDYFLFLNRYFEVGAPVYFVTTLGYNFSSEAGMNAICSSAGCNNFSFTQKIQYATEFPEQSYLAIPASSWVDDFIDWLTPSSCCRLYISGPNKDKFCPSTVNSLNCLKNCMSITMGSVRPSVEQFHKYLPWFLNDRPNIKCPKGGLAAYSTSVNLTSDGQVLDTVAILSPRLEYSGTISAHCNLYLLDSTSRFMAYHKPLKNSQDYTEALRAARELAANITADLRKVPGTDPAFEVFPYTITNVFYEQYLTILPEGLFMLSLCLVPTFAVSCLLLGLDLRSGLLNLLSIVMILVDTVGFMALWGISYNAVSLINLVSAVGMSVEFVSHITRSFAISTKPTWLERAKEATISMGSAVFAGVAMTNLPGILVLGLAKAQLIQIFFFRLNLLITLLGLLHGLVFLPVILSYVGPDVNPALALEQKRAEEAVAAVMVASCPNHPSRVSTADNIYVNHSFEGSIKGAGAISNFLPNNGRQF
As to the kind of experiment: Inhibitory effect of ezetimibe on vitamin D uptake by differentiated Caco-2 cells (facilitated diffusion). Format: in vitro ADME. The note with it: 150 μM ezetimibe pretreatment 2 h. The method, then:
In the present study, we evaluated the involvement of facilitated diffusion in the cellular uptake of each mixed micellar vitamin D2–D7 by using ezetimibe, an inhibitor of the protein Niemann-Pick C1-like 1 (NPC1L1). Ezetimibe was dissolved in dimethyl sulfoxide (DMSO), and then was added at a final concentration of 150 μM to the culture medium. At this time, the final concentration of DMSO was 1.5% (v/v). The differentiated Caco-2 cells were preincubated at 37 °C for 2 h with ezetimibe-containing culture medium (0.5 mL). The cells were washed two times with FBS-free DMEM (0.5 mL) and then treated with the medium containing mixed micellar vitamin D (0.5 mL) for 2 h, as described above. After treatment, cellular vitamin D, residual mixed micellar vitamin D, and the cellular protein content were evaluated as described in the previous subsection.

The test system of a further data set is rats. Conditions: cited from earlier work.
In another data set the test system is dispersed Caco-2 cells. As to the kind of experiment: Uptake of vitamin D from mixed micelles by dispersed Caco-2 cells. It is filed as in vitro ADME, human. The note with it: NoPC mixed micelles, 2 h, cells dispersed with trypsin; compared among vitamins D2–D7. An excerpt: Since 2001, we have reported that lysophospholipids enhance the uptake of micellar carotenoids in Caco-2 cells. […] In the present study, using the same method, we examined whether the mechanism for the enhancing effect of lysophosphatidylcholine could be adapted to vitamin D, as well. To evaluate the impact of the degree of cell-cell adhesion/cell-matrix adhesion on vitamin D uptake by cells, we prepared in two different ways: i) dispersed Caco-2 cells without cell-cell adhesion/cell-matrix adhesion and ii) Caco-2 cells with insufficient cell-cell adhesion.
(i): The dispersed cells were prepared by trypsin treatment. After collecting the cells in the culture medium, the number of cells was counted and diluted with the medium. The cells were washed two times with FBS-free DMEM and then seeded in culture plate of 24-well for suspension cultures (SC plate; Greiner Bio-One, Frickenhausen, Germany) at a density of 15 × 10^4 cells per well containing the FBS-free DMEM (0.5 mL).
Subsequent operations are common to the two models of cells. The medium consisting of mixed micellar vitamin D (0.5 mL) was added to adhered cells or dispersed cells in individual wells containing FBS-free DMEM (0.5 mL), resulting in a total medium volume of 1.0 mL/well, and the final start concentrations of mixed micellar components were one-half the initial concentration. The cells were incubated in the same conditions as described above, i.e., in a CO2 incubator at 37 °C for 2 h, and then the cells were washed with 2 mM taurocholate/PBS, followed by two times with PBS. The vitamin D uptake and residual mixed micellar vitamin D were evaluated as the previous subsection, but the filtrate of residual mixed micellar vitamin D was diluted with a 2x-volume of H2O. The cellular protein content was also determined as above.

The structures appear in SMILES notation.

`CCCCCCCCCCCCCCCC(=O)OC[C@@H](O)COP(=O)([O-])OCC[N+](C)(C)C` [lysophosphatidylcholine, 1-16:0-2-OH-sn-glycerol-3-phosphocholine]: in data set [1] (differentiated Caco-2 cells, lysophosphatidylcholine 50 μM in mixed micelles, average for six vitamin D species), the “Enhancement of vitamin D uptake by lysophosphatidylcholine compared with NoPC” value is listed as 2.5 times. Moreover, the “Effect on cellular cholesterol amounts” value in data set [2] (lysophosphatidylcholine at <100 μM in mixed micelles) is “tended to decrease the cellular cholesterol, but the decrease was not significant”; in data set [2] (lysophosphatidylcholine at >150 μM in mixed micelles), “significantly decreased the cellular cholesterol”.
The term inhibition denotes the relative decrease from the control value, in per cent. With `O=C1[C@H](CC[C@H](O)c2ccc(F)cc2)[C@@H](c2ccc(O)cc2)N1c1ccc(F)cc1` [ezetimibe], the “Vitamin-D3 uptake blocked by ezetimibe” value in data set [3] was 20–30%. In addition, in data set [3] (relative to vehicle control, NoPC and lysoPC mixed micelles, read-out: Inhibition of the uptakes of vitamins D2–D7 by ezetimibe), the inhibition at 150 µM is about 20%.
`C=C1CCC(O)C/C1=C/C=C1\CCCC2(C)C1CCC2C(C)CCC(CC)C(C)C` (centres unmarked) [Vitamin D5]: in the data set on rats (UV-irradiated precursors, not crystals), the “Anti-rickets activity relative to that of vitamin D2” value was 1/70. Besides, the “Anti-rickets activity relative to that of vitamins D2 and D3 as UV irradiation precursors” value in the data set on rats (UV-irradiated precursors) is 1/40. The “Anti-rickets activity relative to that of vitamin D3” value in the data set on rats (line test, crystal) is listed as 1/180. In addition, the “Vitamin D uptake by differentiated Caco-2 cells” value in data set [1] (NoPC mixed micelles (without lysophosphatidylcholine)) is “lower by vitamin D5 than by other vitamins D”; in data set [1] (lysoPC mixed micelles (lysophosphatidylcholine 50 μM)), “tended to be lower than that of other vitamins D”. In addition, the “Vitamin D uptake by dispersed Caco-2 cells” value with dispersed Caco-2 cells was “no tendency toward decreased vitamin-D5 uptake”.
